What is called IC50 is the concentration that gives 50% inhibition.

The target of this assay is Phospholipase D3 (PLD3) (Homo sapiens, UniProt Q8IV08).
Chain of Phospholipase D3 (PLD3) (Q8IV08 whole entry): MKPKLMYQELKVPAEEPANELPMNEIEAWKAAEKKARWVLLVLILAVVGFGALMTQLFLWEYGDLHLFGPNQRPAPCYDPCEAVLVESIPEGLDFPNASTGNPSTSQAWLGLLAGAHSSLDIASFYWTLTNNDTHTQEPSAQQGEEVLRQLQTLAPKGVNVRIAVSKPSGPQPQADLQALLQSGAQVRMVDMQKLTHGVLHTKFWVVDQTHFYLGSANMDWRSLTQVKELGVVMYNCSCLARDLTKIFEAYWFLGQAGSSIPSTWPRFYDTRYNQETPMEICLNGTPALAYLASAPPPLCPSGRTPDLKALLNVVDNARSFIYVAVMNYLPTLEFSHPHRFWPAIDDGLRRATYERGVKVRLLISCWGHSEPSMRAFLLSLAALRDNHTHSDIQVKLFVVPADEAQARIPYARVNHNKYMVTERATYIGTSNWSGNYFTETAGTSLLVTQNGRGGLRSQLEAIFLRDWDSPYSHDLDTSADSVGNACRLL

`[O]=[V]([OH])([OH])[OH]` [orthovanadate] had an IC50 of 10 µM.

The record behind these values is paper PMC7857491, “Quantification and characterization of the 5′ exonuclease activity of the lysosomal nuclease PLD3 by a novel cell-based assay” (The Journal of Biological Chemistry, 2020).
